# Laboratory results as given in US10391098B2, “Antisense antibacterial compounds and methods” (priority 2014, dated 2019).
# Where two headings read alike, the source gives them in different places. {(RXR)4XB} = cell-penetrating peptide (R arginine, X 6-aminohexanoic acid, B beta-alanine), conjugated via its C-terminal beta-alanine linked through a pip-PDA moiety; {TEG} = triethylene glycol end group (as defined in the publication); {Acetyl} = acetyl cap
# Assays:
# E. coli SMS-3-5 = experiment: MIC of classical antibiotics with added PPMOs that target resistance genes; type: cell-based
# From the text: FIGS. 15A-15B show the minimum inhibitory concentration (MIC) of classical antibiotics with added PPMOs that target resistance genes in E. coli SMS-3-5. (FIG. 15A) MIC of ampicillin with blaT-(RXR)4XB (PPMO#66). (FIG. 15B) MIC of chloramphemicol with cmlA-(RXR)4XB (PPMO#67). N=3.
# Minimal Inhibitory Concentration Assays.
# Modulating antibiotic resistance with PPMOs could be an alternative therapeutic strategy. As proof of concept, PPMOs were designed to target specific, non-essential antibiotic resistance genes. blaT is part of the TEM beta-lactamase family and is found in environmental strains of E. coli, like SMS-3-5.
# [1] = test system: multi-drug-resistant strain of Acinetobacter baumannii (AYE); experiment: MIC of colistin, meropenem, tobramycin with added PPMO (microdilution), synergy by isoboles; details: for MIC: Acinetobacter baumannii
# Protocol: Minimal Inhibitory Concentration Assays. Minimal inhibitory concentration (MIC) assays were performed in Mueller Hinton II medium using the microdilution method as described by the Clinical and Laboratory Standards Institute (CLSI). Optical density (OD) of cultures was read in a microplate spectrophotometer at 595-600 nm. After 18-20 hours of aerobic growth (200-250 rpm) at 37° C., 100 μl cultures with an OD of <0.06 were scored as no growth.
# Synergy Studies. MICs were performed with a PPMO and a classic antibiotic (as indicated) in a 96 well plate. The PPMO was diluted first horizontally down the plate and the classic antibiotic was diluted across the rows of the plate. Inhibition was determined by visual observation and OD600 (see Berenbaum et al., J Antimicrob Chemother 12:555-563, 1983; and Berenbaum, J Infect Dis 137:122-130, 1978). […] Synergy was quantified using the method of isoboles as described (see Tallarida, Genes Cancer. 2:1003-8, 2011): (Effective concentration of antibiotic/MIC of antibiotic)+(Effective concentration of PPMO/MIC of PPMO). Calculated values less than 1 indicated synergy.
# The MIC of the antibiotics colistin, meropenem, and tobramycin was measured using the microdilution method of the Clinical Laboratory Standards Institute in a 96-well microtiter plate format. Multiple, identical dilution series of each antibiotic were included on each microtiter plate. In each dilution series of antibiotic, a fixed amount of PPMO was added. Each dilution series of antibiotic included a different concentration of PPMO.
# A. baumannii AYE [2] = experiment: MIC of tobramycin with adeA PPMO in nutrient rich and minimal media; type: cell-based; details: for MIC of tobramycin with adeA PPMO: 8 μM adeA PPMO
# [3] = test system: Acinetobacter spp. (~34 strains); experiment: PPMO MIC (IC75) in panel of Acinetobacter strains, rich and minimal media; details: nutrient rich MHII media
# Protocol: Bacteria. Bacterial strains were obtained through the clinical microbiology lab at UT Southwestern unless otherwise noted. Strains also included those purchased through ATCC, the E. coli Genetic Stock Center (Yale University), or received from collaborators. They included both genome-sequenced isolates as well as clinical isolates with varying levels of antibiotic resistance. Single colonies were grown aerobically to stationary phase (1-2 mLs at 37° C., 250 rpm) in Mueller Hinton cation-adjusted (MH II) broth (Becton-Dickinson Difco BBL, Franklin Lakes, N.J., USA). The OD600 was taken and a working stock of 5×10^5 was generated based on the individual strain's colony forming units (CFU)/mL/OD. Working stocks were diluted in 150 mM NaCl and plated on tryptic-soy agar w/5% sheep blood plate (Remel, Lenexa, Kans.) to verify the starting concentration. For minimal nutrient conditions, E. coli was incubated in MOPS minimal medium (Neidhart et al., J Bacteriol 119:736-747, 1974), and Acinetobacter was performed in AB minimal media (Agrobacterium minimal media) with 10 mM citrate (Clark, J Mol Biol 23:99-112, 1967).
# Minimal Inhibitory Concentration Assays. […] Optical density (OD) of cultures was read in a microplate spectrophotometer at 595-600 nm. After 18-20 hours of aerobic growth (200-250 rpm) at 37° C., 100 μl cultures with an OD of <0.06 were scored as no growth. […]
# A. baumannii AYE [4] = experiment: Transmission electron microscopy of PPMO-treated bacteria; type: cell-based; details: 40 μM
molecule,measurement,setting,value
"O=C(N[C@H](CO)[C@H](O)c1ccc([N+](=O)[O-])cc1)C(Cl)Cl [chloramphenicol, reference compound]",MIC,"E. coli SMS-3-5; Escherichia coli, SMS35, chloramphenicol alone",> 512 µg/mL
"C[C@@H](O)[C@H]1C(=O)N2C(C(=O)O)=C(S[C@@H]3CN[C@H](C(=O)N(C)C)C3)[C@H](C)[C@H]12 [meropenem, reference compound]",MIC,[1]; read-out: MIC of meropenem,2 µg/mL
"NC[C@H]1O[C@H](O[C@H]2[C@H](O)[C@@H](O[C@H]3O[C@H](CO)[C@@H](O)[C@H](N)[C@H]3O)[C@H](N)C[C@@H]2N)[C@H](N)C[C@@H]1O [tobramycin, reference compound]",MIC,[1]; read-out: MIC of tobramycin,64 µg/mL
same,MIC of tobramycin alone,A. baumannii AYE [2]; AB Minimal Media,64 µg/mL
same,MIC,"A. baumannii AYE [2]; Acinetobacter baumannii, MHII, read-out: MIC of tobramycin alone",64 µg/mL
"PPMO#6: acpP PPMO ATATCGCTCAC; 5' (RXR)4XB, 3' acetyl (all phosphorodiamidate morpholino (PMO), 5' {(RXR)4XB}, 3' {Acetyl}; further chemistry not given here)",IC75 MIC,[3],2 µM
"PPMO#7: acpP PPMO ATATCGCTCAC; 5' TEG, 3' (RXR)4XB (all phosphorodiamidate morpholino (PMO), 5' {TEG}, 3' {(RXR)4XB}; further chemistry not given here)",IC75 MIC,[3],4 µM
same,cell morphology by TEM,"A. baumannii AYE [4]; 6 hours of incubation, MHII media",cell wall disruption
same,earliest time at which cell wall disruption was seen,A. baumannii AYE [4]; data not shown,3 h
same,MIC of colistin in the presence of PPMO,[1]; 2 μM of PPMO,0.25 µg/mL
same,MIC of tobramycin in the presence of PPMO,[1]; 4 μM PPMO,2 µg/mL
same,"synergy (method of isoboles; values less than 1 indicate synergy), colistin + PPMO",[1]; colistin,0.75
same,"synergy (method of isoboles), meropenem + PPMO",[1]; meropenem,0.75
same,"synergy (method of isoboles), tobramycin + PPMO",[1]; tobramycin,0.625
"PPMO#65: adeA PPMO ATACTGTCCAA; 5' TEG, 3' (RXR)4XB (listed as DNA, chemistry not fully specified)",MIC of tobramycin with adeA PPMO,A. baumannii AYE [2]; MHII,4 µg/mL
same,MIC of tobramycin with adeA PPMO,A. baumannii AYE [2]; minimal media,1 µg/mL
"PPMO#66: blaT PPMO CTCTTCCTTTT; 5' TEG, 3' (RXR)4XB (listed as DNA, chemistry not fully specified)",effect of increasing concentrations of blaT PPMO on MIC of ampicillin,E. coli SMS-3-5; FIG. 15A,progressively decreased
"PPMO#67: cml PPMO TCCTTCTGATT; 5' TEG, 3' (RXR)4XB (listed as DNA, chemistry not fully specified)",effect of increasing concentrations of cmlA PPMO on MIC of chloramphenicol,E. coli SMS-3-5; FIG. 15B,progressively decreases in a dose-dependent fashion
colistin [reference compound],MIC of colistin,[1]; without PPMO,1 µg/mL
